Converted amounts (≈) assume the structure as drawn.
Test system: not listed separately
Experiment: Apparent permeability of compound
Type: ADME
Conditions: not told

**Q.** Which Papp does the source give for O=C(N[C@@H]1CC[C@@H](c2cccc(F)c2F)CN(CC(F)(F)F)C1=O)N1CCC(n2c(=O)[nH]c3ncccc32)CC1 [TELCAGEPANT] here?
**A.** Its Papp is 21 ×10⁻⁶ cm/s.

**Q.** For COC(C)(C)c1cnc2n1C[C@H](c1cccc(F)c1F)CC[C@H]2NC(=O)N1CCC2(CC1)OC(=O)Nc1ncccc12, which Papp is on record?
**A.** The Papp was 24 ×10⁻⁶ cm/s.

**Q.** With O=C(N[C@@H]1CC[C@@H](c2cccc(F)c2F)Cn2c(C3CC3)nnc21)N1CCC(n2c(=O)[nH]c3ncccc32)CC1 as the molecule, how does the Papp read?
**A.** The Papp was 4 ×10⁻⁶ cm/s.

**Q.** With O=C(N[C@@H]1CC[C@@H](c2cccc(F)c2F)Cn2c(CC(F)(F)F)cnc21)N1CCC(n2c(=O)[nH]c3ncccc32)CC1 as the molecule, how does the Papp read?
**A.** The Papp was 24 ×10⁻⁶ cm/s.

Test system: Rhesus monkey
Experiment: Inhibition of capsaicin-induced dermal vasodilation in orally dosed rhesus monkey
Type: functional, Macaca mulatta
Conditions: not given

**Q.** Which EC90 does the source give for O=C1Nc2ncccc2C2(CCN(C(=O)N[C@@H]3CC[C@@H](c4cccc(F)c4F)Cn4c(CC(F)(F)F)cnc43)CC2)O1 here?
**A.** Its EC90 is 1000 nM.

**Q.** For CC(C)(O)c1cnc2n1C[C@H](c1cccc(F)c1F)CC[C@H]2NC(=O)N1CCC2(CC1)OC(=O)Nc1ncccc12, which EC90 is on record?
**A.** Its EC90 is 330 nM.

Test system: Rhesus monkey
Experiment: Oral bioavailability in rhesus monkey assessed as N-((6S,9R)-6-(2,3-difluorophenyl)-3-(2-hydroxypropan-2-yl)-6,7,8,9-tetrahydro-5H-imidazo[1,2-a]azepin-9-yl)-2'-oxo-1',2'-dihydrospiro[piperidine-4,4'-pyrido[2,3-d][1,3]oxazine]-1-carboxamide at 10 mg/kg, po or iv normalized to AUC
Type: ADME, organism-based, Macaca mulatta
Conditions: in vivo

**Q.** With COC(C)(C)c1cnc2n1C[C@H](c1cccc(F)c1F)CC[C@H]2NC(=O)N1CCC2(CC1)OC(=O)Nc1ncccc12 as the molecule, how does the F read?
**A.** Its F is 29%.

Test system: Rattus norvegicus
Experiment: Oral bioavailability in rat assessed as N-((6S,9R)-6-(2,3-difluorophenyl)-3-(2-hydroxypropan-2-yl)-6,7,8,9-tetrahydro-5H-imidazo[1,2-a]azepin-9-yl)-2'-oxo-1',2'-dihydrospiro[piperidine-4,4'-pyrido[2,3-d][1,3]oxazine]-1-carboxamide at 10 mg/kg, po or iv normalized to AUC
Type: ADME, organism-based
Conditions: in vivo

**Q.** With COC(C)(C)c1cnc2n1C[C@H](c1cccc(F)c1F)CC[C@H]2NC(=O)N1CCC2(CC1)OC(=O)Nc1ncccc12 as the molecule, how does the F read?
**A.** Its F is 26%.

Test system: not listed separately
Experiment: Aqueous solubility of the compound at pH 3
Type: physicochemical
Conditions: buffer

**Q.** With COC(C)(C)c1cnc2n1C[C@H](c1cccc(F)c1F)CC[C@H]2NC(=O)N1CCC2(CC1)OC(=O)Nc1ncccc12 as the molecule, how does the solubility read?
**A.** The solubility was 1100 µg/mL (≈ 1890 µM).

Test system: not listed separately
Experiment: Oral bioavailability in rat at 10 mg/kg, po administered as a suspension in 1% aqueous methylcellulose
Type: ADME, organism-based
Conditions: in vivo

**Q.** For O=C1Nc2ncccc2C2(CCN(C(=O)N[C@@H]3CC[C@@H](c4cccc(F)c4F)Cn4c(CC(F)(F)F)nnc43)CC2)O1, which bioavailability is on record?
**A.** Its bioavailability is under 1%.

**Q.** With COC(C)(C)c1cnc2n1C[C@H](c1cccc(F)c1F)CC[C@H]2NC(=O)N1CCC2(CC1)OC(=O)Nc1ncccc12 as the molecule, how does the bioavailability read?
**A.** Its bioavailability is 16%.

**Q.** Which bioavailability does the source give for O=C1Nc2ncccc2C2(CCN(C(=O)N[C@@H]3CC[C@@H](c4cccc(F)c4F)Cn4c(CC(F)(F)F)cnc43)CC2)O1 here?
**A.** Its bioavailability is 33%.

**Q.** Which bioavailability does the source give for CC(C)(O)c1cnc2n1C[C@H](c1cccc(F)c1F)CC[C@H]2NC(=O)N1CCC2(CC1)OC(=O)Nc1ncccc12 here?
**A.** The bioavailability was 3%.

**Q.** With O=C(N[C@@H]1CC[C@@H](c2cccc(F)c2F)Cn2c(C3CC3)nnc21)N1CCC(n2c(=O)[nH]c3ncccc32)CC1 as the molecule, how does the bioavailability read?
**A.** Its bioavailability is 2%.

**Q.** Which bioavailability does the source give for O=C(N[C@@H]1CC[C@@H](c2cccc(F)c2F)Cn2c(CC(F)(F)F)cnc21)N1CCC(n2c(=O)[nH]c3ncccc32)CC1 here?
**A.** The bioavailability was 35%.

Test system: not listed separately
Experiment: Oral bioavailability in dog at 10 mg/kg, po
Type: ADME, organism-based, Canis lupus familiaris
Conditions: in vivo

**Q.** Which bioavailability does the source give for COC(C)(C)c1cnc2n1C[C@H](c1cccc(F)c1F)CC[C@H]2NC(=O)N1CCC2(CC1)OC(=O)Nc1ncccc12 here?
**A.** The bioavailability was 10%.

**Q.** With O=C1Nc2ncccc2C2(CCN(C(=O)N[C@@H]3CC[C@@H](c4cccc(F)c4F)Cn4c(CC(F)(F)F)cnc43)CC2)O1 as the molecule, how does the bioavailability read?
**A.** Its bioavailability is 28%.

Test system: Canis familiaris
Experiment: Oral bioavailability in dog assessed as N-((6S,9R)-6-(2,3-difluorophenyl)-3-(2-hydroxypropan-2-yl)-6,7,8,9-tetrahydro-5H-imidazo[1,2-a]azepin-9-yl)-2'-oxo-1',2'-dihydrospiro[piperidine-4,4'-pyrido[2,3-d][1,3]oxazine]-1-carboxamide at 10 mg/kg, po or iv normalized to AUC
Type: ADME, organism-based, Canis lupus familiaris
Conditions: in vivo

**Q.** For COC(C)(C)c1cnc2n1C[C@H](c1cccc(F)c1F)CC[C@H]2NC(=O)N1CCC2(CC1)OC(=O)Nc1ncccc12, which F is on record?
**A.** The F was 14%.

Species on record: Homo sapiens
Experiment: Ratio of IC50 for inhibition of [35S]-MK-499 binding to human ERG channel to IC50 for inhibition of cell based CGRP-stimulated cAMP production
Conditions: not given

**Q.** With O=C1Nc2ncccc2C2(CCN(C(=O)N[C@@H]3CC[C@@H](c4cccc(F)c4F)Cn4c(CC(F)(F)F)nnc43)CC2)O1 as the molecule, how does the Ratio IC50 read?
**A.** Its Ratio IC50 is over 36000.

**Q.** With COC(C)(C)c1cnc2n1C[C@H](c1cccc(F)c1F)CC[C@H]2NC(=O)N1CCC2(CC1)OC(=O)Nc1ncccc12 as the molecule, how does the Ratio IC50 read?
**A.** Its Ratio IC50 is 32000.

**Q.** For CC(C)(O)c1cnc2n1C[C@H](c1cccc(F)c1F)CC[C@H]2NC(=O)N1CCC2(CC1)OC(=O)Nc1ncccc12, which Ratio IC50 is on record?
**A.** The Ratio IC50 was 23000.

Target: T1, Calcitonin gene-related peptide type 1 receptor (Homo sapiens, UniProt O60894+Q16602)
T1 sequence (Q16602 whole entry, one chain of several): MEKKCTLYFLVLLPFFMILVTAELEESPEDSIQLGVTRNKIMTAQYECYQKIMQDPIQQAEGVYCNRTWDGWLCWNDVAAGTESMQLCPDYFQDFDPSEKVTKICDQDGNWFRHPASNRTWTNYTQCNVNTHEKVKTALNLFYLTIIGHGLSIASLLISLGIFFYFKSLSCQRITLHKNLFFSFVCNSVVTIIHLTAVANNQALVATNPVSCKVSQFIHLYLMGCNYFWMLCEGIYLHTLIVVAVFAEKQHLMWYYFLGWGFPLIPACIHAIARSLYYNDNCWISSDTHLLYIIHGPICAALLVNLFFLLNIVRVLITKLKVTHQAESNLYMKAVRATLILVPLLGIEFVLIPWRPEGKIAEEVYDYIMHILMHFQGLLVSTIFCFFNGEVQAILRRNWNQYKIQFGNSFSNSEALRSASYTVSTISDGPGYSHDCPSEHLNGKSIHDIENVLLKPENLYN
Experiment: Antagonist activity at CGRP receptor assessed as inhibition of CGRP-stimulated cAMP production by cell based assay in presence of 50% human serum
Type: functional
Conditions: not given

**Q.** For O=C1Nc2ncccc2C2(CCN(C(=O)N[C@@H]3CC[C@@H](c4cccc(F)c4F)Cn4c(CC(F)(F)F)nnc43)CC2)O1, which IC50 is on record?
**A.** The IC50 was 1.3 nM.

**Q.** Which IC50 does the source give for COC(C)(C)c1cnc2n1C[C@H](c1cccc(F)c1F)CC[C@H]2NC(=O)N1CCC2(CC1)OC(=O)Nc1ncccc12 here?
**A.** Its IC50 is 0.63 nM.

**Q.** Which IC50 does the source give for O=C1Nc2ncccc2C2(CCN(C(=O)N[C@@H]3CC[C@@H](c4cccc(F)c4F)Cn4c(CC(F)(F)F)cnc43)CC2)O1 here?
**A.** Its IC50 is 2 nM.

**Q.** With CC(C)(O)c1cnc2n1C[C@H](c1cccc(F)c1F)CC[C@H]2NC(=O)N1CCC2(CC1)OC(=O)Nc1ncccc12 as the molecule, how does the IC50 read?
**A.** The IC50 was 1.5 nM.

**Q.** With O=C(N[C@@H]1CC[C@@H](c2cccc(F)c2F)Cn2c(C3CC3)nnc21)N1CCC(n2c(=O)[nH]c3ncccc32)CC1 as the molecule, how does the IC50 read?
**A.** The IC50 was 2.4 nM.

**Q.** For O=C(N[C@@H]1CC[C@@H](c2cccc(F)c2F)Cn2c(CC(F)(F)F)cnc21)N1CCC(n2c(=O)[nH]c3ncccc32)CC1, which IC50 is on record?
**A.** The IC50 was 2.6 nM.

Test system: not listed separately
Experiment: Aqueous solubility of the compound at pH 7.4
Conditions: buffer

**Q.** Which solubility does the source give for O=C(N[C@@H]1CC[C@@H](c2cccc(F)c2F)CN(CC(F)(F)F)C1=O)N1CCC(n2c(=O)[nH]c3ncccc32)CC1 [TELCAGEPANT] here?
**A.** The solubility was 30 µg/mL (≈ 53 µM).

Test system: not listed separately
Experiment: Oral bioavailability in rhesus monkey at 10 mg/kg, po
Type: ADME, organism-based, Macaca mulatta
Conditions: in vivo

**Q.** For COC(C)(C)c1cnc2n1C[C@H](c1cccc(F)c1F)CC[C@H]2NC(=O)N1CCC2(CC1)OC(=O)Nc1ncccc12, which bioavailability is on record?
**A.** Its bioavailability is 5%.

**Q.** With O=C1Nc2ncccc2C2(CCN(C(=O)N[C@@H]3CC[C@@H](c4cccc(F)c4F)Cn4c(CC(F)(F)F)cnc43)CC2)O1 as the molecule, how does the bioavailability read?
**A.** The bioavailability was 17%.

Target: T1, Calcitonin gene-related peptide type 1 receptor
Experiment: Displacement of [125I]-CGRP from human recombinant CGRP receptor
Conditions: not given

**Q.** For O=C1Nc2ncccc2C2(CCN(C(=O)N[C@@H]3CC[C@@H](c4cccc(F)c4F)Cn4c(CC(F)(F)F)nnc43)CC2)O1, which Ki is on record?
**A.** The Ki was 0.19 nM.

**Q.** Which Ki does the source give for COC(C)(C)c1cnc2n1C[C@H](c1cccc(F)c1F)CC[C@H]2NC(=O)N1CCC2(CC1)OC(=O)Nc1ncccc12 here?
**A.** The Ki was 0.05 nM.

**Q.** With O=C1Nc2ncccc2C2(CCN(C(=O)N[C@@H]3CC[C@@H](c4cccc(F)c4F)Cn4c(CC(F)(F)F)cnc43)CC2)O1 as the molecule, how does the Ki read?
**A.** The Ki was 0.07 nM.

**Q.** Which Ki does the source give for CC(C)(O)c1cnc2n1C[C@H](c1cccc(F)c1F)CC[C@H]2NC(=O)N1CCC2(CC1)OC(=O)Nc1ncccc12 here?
**A.** The Ki was 0.29 nM.

**Q.** With O=C(N[C@@H]1CC[C@@H](c2cccc(F)c2F)Cn2c(C3CC3)nnc21)N1CCC(n2c(=O)[nH]c3ncccc32)CC1 as the molecule, how does the Ki read?
**A.** The Ki was 1 nM.

**Q.** Which Ki does the source give for O=C(N[C@@H]1CC[C@@H](c2cccc(F)c2F)Cn2c(CC(F)(F)F)cnc21)N1CCC(n2c(=O)[nH]c3ncccc32)CC1 here?
**A.** Its Ki is 0.14 nM.

Target: T1, Calcitonin gene-related peptide type 1 receptor
Experiment: Antagonist activity at CGRP receptor assessed as inhibition of CGRP-stimulated cAMP production by cell based assay
Type: functional
Conditions: not given

**Q.** For O=C1Nc2ncccc2C2(CCN(C(=O)N[C@@H]3CC[C@@H](c4cccc(F)c4F)Cn4c(CC(F)(F)F)nnc43)CC2)O1, which IC50 is on record?
**A.** Its IC50 is 0.83 nM.

**Q.** For COC(C)(C)c1cnc2n1C[C@H](c1cccc(F)c1F)CC[C@H]2NC(=O)N1CCC2(CC1)OC(=O)Nc1ncccc12, which IC50 is on record?
**A.** The IC50 was 0.24 nM.

**Q.** With O=C1Nc2ncccc2C2(CCN(C(=O)N[C@@H]3CC[C@@H](c4cccc(F)c4F)Cn4c(CC(F)(F)F)cnc43)CC2)O1 as the molecule, how does the IC50 read?
**A.** Its IC50 is 0.41 nM.

**Q.** Which IC50 does the source give for CC(C)(O)c1cnc2n1C[C@H](c1cccc(F)c1F)CC[C@H]2NC(=O)N1CCC2(CC1)OC(=O)Nc1ncccc12 here?
**A.** Its IC50 is 0.86 nM.

**Q.** Which IC50 does the source give for O=C(N[C@@H]1CC[C@@H](c2cccc(F)c2F)Cn2c(C3CC3)nnc21)N1CCC(n2c(=O)[nH]c3ncccc32)CC1 here?
**A.** Its IC50 is 1.6 nM.

**Q.** For O=C(N[C@@H]1CC[C@@H](c2cccc(F)c2F)Cn2c(CC(F)(F)F)cnc21)N1CCC(n2c(=O)[nH]c3ncccc32)CC1, which IC50 is on record?
**A.** Its IC50 is 0.37 nM.

— ChEMBL document CHEMBL1770088, “Orally bioavailable imidazoazepanes as calcitonin gene-related peptide (CGRP) receptor antagonists: discovery of MK-2918” (Bioorg Med Chem Lett, 2011)
